# In patent US10655185B2, “Methods for diagnosis and prognosis of epithelial tumors” (H. Lee Moffitt Cancer Center and Research Institute, Inc., priority 2014, dated 2020):
# Test system: LNCaP-104S cells
# Assay: Genome-wide miRNA expression profiling of androgen deprived / androgen blocked LNCaP cells
# Format: cell-based
# Description: FIGS. 1A and 1B show expression of miR-17-92 and Frabin in Androgen Deprived LNCaP Cells. The androgen dependent cell line, LNCaP-104S, was subjected to androgen deprivation or androgen blockade for 3 weeks. Genome-wide miRNA expression profiling identified the miR-17-92 family to be down regulated by 1 week, and further reduced at 3 weeks of treatment. […] FIG. 1B is a Western blot of FGD4/Frabin expression in treated and untreated LNCaP-104S cells.
# Prolonged androgen blockade leads to outgrowth of androgen independent (AI) cells and the development of castration resistant prostate cancer (CRPC). The transition to androgen independence can occur through several adaptive mechanisms and usually results in the acquisition of a more aggressive phenotype, compared to their androgen sensitive progenitors. […] However, the role of miRNAs in progression of androgen sensitive prostate cancer to CRPC has not been clearly defined. To study this transition, androgen sensitive (AS) LNCaP prostate cancer cells were subjected to androgen blockade until a subset of cells (CDXR) survived. […] The miR-17-92 cluster is one of the groups of miRNAs that is down regulated as the cancer cells progresses towards androgen […] (ADT) resistance.
smiles,measurement,setting,value
CC(O)(CS(=O)(=O)c1ccc(F)cc1)C(=O)Nc1ccc(C#N)c(C(F)(F)F)c1 (stereo not shown) [CDX],fold change in expression (Δ Change) of hsa-miR-17,1 wk CDX,−3.37
same,fold change in expression (Δ Change) of hsa-miR-17*,1 wk CDX,−3.13
same,fold change in expression (Δ Change) of hsa-miR-18a,1 wk CDX,−4.36
same,fold change in expression (Δ Change) of hsa-miR-18b,1 wk CDX,−2.28
same,fold change in expression (Δ Change) of hsa-miR-20a,1 wk CDX,−3.31
same,fold change in expression (Δ Change) of hsa-miR-20a*,1 wk CDX,−1.25
same,fold change in expression (Δ Change) of hsa-miR-20b*,1 wk CDX,−0.56
same,fold change in expression (Δ Change) of hsa-miR-106a,1 wk CDX,−3.18
same,fold change in expression (Δ Change) of hsa-miR-17,3 wks CDX,−24.99
same,fold change in expression (Δ Change) of hsa-miR-17*,3 wks CDX,−3.94
same,fold change in expression (Δ Change) of hsa-miR-18a,3 wks CDX,−14.13
same,fold change in expression (Δ Change) of hsa-miR-18b,3 wks CDX,−21.36
same,fold change in expression (Δ Change) of hsa-miR-20a,3 wks CDX,−4.12
same,fold change in expression (Δ Change) of hsa-miR-20a*,3 wks CDX,−18.17
same,fold change in expression (Δ Change) of hsa-miR-20b*,3 wks CDX,−4.60
same,fold change in expression (Δ Change) of hsa-miR-106a,3 wks CDX,−9.40
